Tests used:
Arabidopsis thaliana = Arabidopsis thaliana root growth inhibition; assay type: in vivo; conditions: 168 h, root length ratio vs DMSO control, 50 μM compound, lower values indicate shorter root, larger effect, read-out: Arabidopsis (relative to DMSO)
Protocol: Finally, FIGS. 7a-7o are the photos of the Arabidopsis thaliana plants and the inhibition of their roots growth by the compounds of the present invention. These experiments were conducted as follows. Seeds were washed with 70% ethanol for one minute and then with sterile water. Sterilisation was performed with 50% bleaching solution (3%) and 0.2% Triton x-100 for ten minutes followed by a five-time wash with sterile water. The seeds were placed in six well-plates with half Murashige and Skoog medium (MS; Duchefa, Haarlem, Netherlands), containing 1% sucrose (w/v), pH 5.8. The plates with Arabidopsis thaliana seeds were placed at 4° C. for two days and then transferred for seven days to growth chamber (22±2° C.) at day/light cycles of 16/8 h. The plates were placed vertically. In each plate, a control including 0.1% DMSO in the medium was added. The compounds of the present invention were tested for their herbicidal efficiency by diluting 1000 times a 50 mM stock in DMSO leading to a final concentration of 50 μM with 0.1% DMSO.
In Tables 1, 2 and 4 above, Arabidopsis root length was measured after addition of 50-μM compound compared with the negative control (DMSO) treatment. Length values indicate the ratio between non-treated plates ([…]) and the length after the addition of 50 uM of each compound. Lower values indicate shorter root length, and consequently, larger effect.

Tobacco CGS [1] = biological target: T1, Tobacco CGS (Nicotiana tabacum, UniProt Q9ZPL5); assay: Malachite Green Phosphate assay of direct CGS activity; assay type: biochemical; parameters: 6xHIS (cleaved yes); GB1 solubility tag (cleaved yes); made in house; host or cells: E. coli BL-21; conditions: 2 h; 50 μM compound, 1 μM CGS, two-hour incubation at 25° C.; read-out: Malachite Green Phosphate Assay (% to DMSO, 50 μM)
T1 sequence (Q9ZPL5 79-540): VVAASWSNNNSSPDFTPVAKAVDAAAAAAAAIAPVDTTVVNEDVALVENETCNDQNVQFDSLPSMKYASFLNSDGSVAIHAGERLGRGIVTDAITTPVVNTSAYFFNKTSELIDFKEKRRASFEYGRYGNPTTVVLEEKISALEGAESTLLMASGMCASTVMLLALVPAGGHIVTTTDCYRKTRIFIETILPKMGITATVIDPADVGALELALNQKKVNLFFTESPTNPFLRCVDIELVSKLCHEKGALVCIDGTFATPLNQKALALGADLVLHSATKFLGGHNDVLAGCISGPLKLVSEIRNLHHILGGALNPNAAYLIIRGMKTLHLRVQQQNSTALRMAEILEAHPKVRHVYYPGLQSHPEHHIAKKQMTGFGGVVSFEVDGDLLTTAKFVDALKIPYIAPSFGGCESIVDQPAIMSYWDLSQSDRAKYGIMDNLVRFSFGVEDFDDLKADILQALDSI
Protocol: As discussed above, the first reaction in methionine biosynthesis in plants is catalyzed by the CGS enzyme. In this reaction, the formation of cystathionine is conducted by the γ-replacement of the phosphoryl substituent of O-phospho-homoserine by cysteine and consecutive release of an orthophosphate group.
Expression of recombinant CGS was done by transforming the pET-11 vector containing the DNA sequence of Tobacco CGS with a 6xHIS tag and GB1 solubility tag followed by TEV cleavage site into BL-21 cells. These cells were cultured at 37° C. and optical density (OD)=0.8 protein at 600 nm, and the expression was induced by addition of 1 mM IPTG for 16 hours at 25° C. The protein was purified to homogeneity onto nickel column and cleaved by o/n dialysis with the TEV protease. A second nickel column was used to separate the cleaved CGS from the TEV and GB1 solubility tag.
The direct activity of CGS was tested using the Malachite Green Phosphate Assay Kit (Sigma-Aldrich, cat # MAK307-1KT). It is a highly sensitive and robust experiment used to measure the release of free orthophosphate group based on quantification of the green-coloured complex formed between Malachite Green, molybdate, and free orthophosphate. The rapid colour formation from the reaction can be conveniently measured on a spectrophotometer via the absorbance at 620 nm.
The assay mixture (100 μl) contained 50 mM MOPS—NaOH (pH 7.5), 150 mM NaCl, 0.1 mM PLP and 1 μM purified CGS. The compounds of the present invention were added at a final concentration of 50 μM and reactions were initiated by adding 2 mM cysteine and 3 mM O-phospho-L-homo-serine. After two-hour incubation at 25° C., 80 μL of each sample were transferred into a new 96 well-plate containing 20 μl of Malachite Green Reagent and incubated for additional 30 min at 25° C. Colour development was measured by a plate reader Tecan M200 (620 nm).

Tobacco CGS [2] = biological target: T1, Tobacco CGS; assay: Micro Scale Thermophoresis (MST) direct binding to CGS; parameters: 6xHIS (N, cleaved yes); GB1 solubility tag (N, cleaved yes); made in house; host or cells: E. coli BL21; conditions: score 0-5; binding to labelled Tobacco CGS
Protocol: The direct binding of the compounds of the embodiments to the CGS was tested by Micro Scale Thermophoresis (MST). In the MST assay, the CGS protein was labelled with a fluorophore, the samples were heated, and changes in fluorescence were measured as a function of the ligand concentration. In the MST assay, similar to the expression and purification described above, the recombinant Tobacco CGS protein was expressed in E. coli BL21 cells and purified to homogeneity. For that particular purpose, the pET-11 vector containing the DNA sequence of Tobacco CGS with an N-terminus […] tag followed by a TEV-cleavable GB1 solubility tag was cloned and transformed into the bacteria cells. Cells were cultured to OD=0.8, and protein expression was induced by the addition of 1 mM IPTG. The cells were cultured for additional 16 hours temperature 25° C. Following cellular lysis, the soluble fraction was passed through the nickel column and the bound HIS-tagged protein was eluted by 300 mM imidazole. Then, the tags […] and GB1 were cleaved in dialysis o/n and the mixtures passed again through the nickel column to separate the CGS from the TEV and HIS-GB1 constructs. As a final step the CGS was run on S75 size exclusion chromatography. Thus, the MST assay was performed to measure the biding of the compounds to the CGS protein. For this purpose, the CGS was labelled with commercially available amine reactive fluorophore (Cat # MO-[…], NanoTemper) according to the manufacture instructions. The MST binding curves were then measured using the Monolith NT.115 apparatus by incubating the labelled protein with the indicated compounds in a dose-response manner.

[3] = system: E. coli lacking the endogenic MetB CGS gene, transformed to express the CGS from Arabidopsis; assay: Growth of engineered E. coli expressing Arabidopsis CGS in M9 minimal media, with and without methionine; assay type: cell-based; conditions: for E. coli Assay LE395 (0-5): score 0-5, growth of E. coli with Arabidopsis CGS gene in M9 minimal media; for E. coli specificity (MOA): score, growth with vs without external methionine (40 mg/L)
Protocol: In addition to the direct binding evaluation, specific assay to test the compounds activity and specificity were also developed. In this assay, E. coli cells, lacking the endogenic MetB CGS gene and transformed to express the CGS from Arabidopsis, were used. These cells were grown on M9 minimal media with and without external methionine supplemented to the cells, in the presence of the compounds of the embodiments. These selected compounds of the embodiments, capable of inhibiting the cell growth on M9, but incapable of affecting the cell growth when supplemented with methionine, were validated as methionine-pathway specific inhibitors.
In this assay, Methionine auxotroph E. coli mutant was transformed with PQE-30 vector containing the Arabidopsis CGS gene as previously described in Yael Hacham et al., Plant Physiol., February 2002, 128(2): 454-462. In order to test the effect of the small molecule inhibitors on the CGS and methionine pathway, growth curves of the E. coli in M9 minimal media with […] were measured with and without the addition of external methionine (40 mg/L) in the presence of variable compound concentrations. E. coli growth curves were measured by following the optical density at 600 nm of bacteria in 96 well-plate placed within Tecan M200 plate reader in orbital shaking mode at 37° C. The slope of each curve was estimated using the ‘linest’ function in Excel.

Roquette = Roquette assay spray; assay type: in vivo

Structure (SMILES) | activity at 50 µM (Arabidopsis thaliana) | remaining activity at 50 µM (Tobacco CGS [1]) | MST Tobacco (0-5) (Tobacco CGS [2]) | E. coli Assay LE395 (0-5) [3] | E. coli specificity (MOA) [3] | Roquette assay spray (single average) (Roquette) | Roquette assay spray (twice average) (Roquette) | TEV (relative to DMSO) (TEV (relative to DMSO))
Cc1cc(O)nc(C(=O)Nc2cccc(-c3nc(C)cc(O)n3)c2)c1 [IML-64] | 20% | 15.2% | 4 | 2 | 4 | 1.0 | 2.0 | 0.65
COc1cccc(C(=O)Nc2cccc(-c3cn(Cc4ccccc4)nn3)c2)c1 [IML-69] | 22% | 30% | 5 |  |  | 1.0 | 2.0 | 0.71
O=C(O)C1CN(C(=O)c2cc(-c3ccccc3)on2)c2ccccc21 (stereo not shown) [IML-124] | 0% |  |  | 2 | 5 |  | 3.0 | 0.30
O=C(O)C1CN(C(=O)c2cnn(-c3ccccc3)c2)c2ccccc21 (stereo not shown) [IML-162] | 38% |  |  | 3 | 5 | 2.0 |  | 0.20
O=C(O)C1Cc2ccccc2N1C(=O)c1cc(-c2ccccc2)on1 (stereo not shown) [IML-163] | 0% |  |  | 4 | 5 |  | 4.0 | 0.31
O=C(O)C1CN(C(=O)c2cc(-c3cccnc3)on2)c2ccccc21 (stereo not shown) [IML-180] | 58% |  | 3 | 1 | 5 |  |  | 0.25
CCc1nc(-c2cccc(NC(=O)c3cccc(OC)c3)c2)no1 [IML-215] | 6% | 12.8% | 2 | 3 | 3 | 1.0 | 2.0 | 0.39
CCc1noc(-c2cccc(NC(=O)c3cccc(OC)c3)c2)n1 [IML-216] | 20% |  | 2 | 3 | 5 | 2.0 | 2.0 | 0.57
O=C(Nc1cccc(-c2csc(Nc3ccc(C(=O)O)c(O)c3)n2)c1)c1ccccc1 [IML-219] |  | 28.3% | 4 | 1 | 5 |  |  | 
COc1ccc(Cc2nc(-c3cccc(NC(=O)c4cccc(F)c4)c3)no2)cc1 [IML-220] |  | 10.8% |  | 3 | 5 |  |  | 
CCc1nc(-c2cc(CC(=O)O)cc(NC(=O)c3cccc(OC)c3)c2)no1 [IML-228] |  | 27.4% |  |  |  |  |  | 
CCc1nc(-c2cncc(NC(=O)c3cccc(OC)c3)c2)no1 [IML-229] | 10% | 19.6% |  |  |  |  |  | 0.44
CCn1cc(-c2cccc(NC(=O)c3cccc(OC)c3)c2)nn1 [IML-230] | 29% | 21.7% |  |  |  |  | 1.0 | 
Cc1cc(O)nc(-c2cccc(NC(=O)c3c(O)cccc3F)c2)n1 [IMS-220] |  | 15.9% | 3 | 4 | 5 |  |  | 

Source: patent US11639345B2, “Methionine metabolic pathway inhibitors” (MIGAL—GALILEE RESEARCH INSTITUTE LTD., priority 2018, dated 2023)
